Patent US7288552B2, “Piperidine derivatives, process for preparation thereof, and pharmaceutical composition for alzheimer's disease containing the same” (STC NARA Co., Ltd., priority 2001, dated 2007)

Assays:
[1] = molecular target: T1, acetylcholinesterase (Type V-S: from electric eel) (Electrophorus electricus, UniProt O42275); assay: Measurement of acetylcholinesterase activity (modified Ellman's method); assay type: biochemical; settings: 0.03 U enzyme, 37° C., 412 nm; read-out: AChE Inhibition (IC50)
T1 construct: purchased Sigma Chemical Co., U.S.A. Type V-S
T1 sequence (O42275 24-633): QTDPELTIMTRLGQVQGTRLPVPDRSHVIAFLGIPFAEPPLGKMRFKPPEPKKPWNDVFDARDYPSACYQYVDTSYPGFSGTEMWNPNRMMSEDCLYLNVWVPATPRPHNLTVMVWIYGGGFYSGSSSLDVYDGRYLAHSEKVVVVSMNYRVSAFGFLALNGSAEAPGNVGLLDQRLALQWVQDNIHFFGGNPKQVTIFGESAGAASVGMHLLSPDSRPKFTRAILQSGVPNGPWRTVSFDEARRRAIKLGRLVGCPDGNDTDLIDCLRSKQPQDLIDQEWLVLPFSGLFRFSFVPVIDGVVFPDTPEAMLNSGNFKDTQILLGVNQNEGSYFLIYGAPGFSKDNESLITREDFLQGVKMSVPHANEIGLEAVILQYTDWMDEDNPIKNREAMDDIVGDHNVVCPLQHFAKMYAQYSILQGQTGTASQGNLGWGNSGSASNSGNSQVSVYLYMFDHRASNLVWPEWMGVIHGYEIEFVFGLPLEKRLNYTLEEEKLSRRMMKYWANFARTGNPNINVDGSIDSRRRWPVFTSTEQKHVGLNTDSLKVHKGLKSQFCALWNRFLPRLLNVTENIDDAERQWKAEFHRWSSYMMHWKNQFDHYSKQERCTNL
Description: Experiment for Measuring Acetylcholinesterase Inhibition Effect
The compounds used for measuring acetylcholinesterase (AChE) activity such as acetylcholinesterase (Type V-S: from electric eel), acetylcholine iodide, 5,5-dithio-bis(2-nitro benzoic acid), and neostigmine bromide, were products of Sigma Chemical Co., U.S.A., and high purity reagents were selected for other reagents.
3. Measurement of Acetylcholinesterase Activity
Modified Ellman's method for measuring enzyme activity was used to meet with the measurement of acetylcholinesterase activity. The enzyme was separated into certain amount, and kept under 80° C. below zero. The final concentration of the enzyme used in the experiment was 0.03 unit concentration. 1000 μM of […] dissolved in 0.1 M sodium phosphate buffer (pH 8.0) was used for substrate. As for dye reagent, 5,5-dithio-bis-(2-nitrobenzoic acid) (39.6 mg) and sodium bicarbonate(15 mg) dissolved in 10 mL sodium phosphate buffer (0.1M, pH 7.0) was used.
The procedure for the enzyme reaction was as follows. After adding 200 μl DTNB and 100 μl enzyme (0.03 U) to 2 mL sodium phosphate buffer (pH 8.0), the resulting mixture was pre-heated at 37° C. for 10 minutes. To the resulting mixture 200 μl substrate was added, and allowed to react for 3 minutes. The spectrometer of finished reaction was measured at 412 nm wave. IC50 value connected to activity inhibition was measured by quantal-dose response.

β-amyloid (1-42) = molecular target: T2, β-amyloid (1-42) (Homo sapiens, UniProt P05067); assay: Inhibition of β-amyloid (1-42) aggregation (thioflavin T fluorescence); assay type: biochemical; settings: 5 μM β-amyloid 1-42, 37° C., 26 hours
T2 construct: β-amyloid (1-42) was a product of American Peptide Co., U.S.A; purchased American Peptide Co., U.S.A
T2 sequence (P05067 672-713 limits assumed): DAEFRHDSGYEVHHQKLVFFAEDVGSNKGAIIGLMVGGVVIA
Description: Experiment for Measuring Inhibition of β-amyloid Aggregation
As the materials used for measuring β-amyloid aggregation, β-amyloid (1-42) was a product of American Peptide Co., U.S.A.; and thioflavin T, phosphate buffered saline tablets, and dimethyl sulfoxide (DMSO, 99.5%) were products of Sigma Chemical Co., U.S.A., and high purity reagents were selected for other reagents.
3. Experiment for Measuring Inhibition of β-amyloid (1-42) Aggregation
Fluorescent analysis was used in measuring β-amyloid aggregation. This peptide compound was kept in the deep freezer (−80° C.), and the final concentration used in the mesurement was 5 μM. Compounds that need to be analyzed were dissolved in 99.5% DMSO, and fluorescent substance was prepared by dissolving thioflavin T (5 μM) in 0.01 M sodium phosphate buffer.
The procedure for aggregation reaction was as follows. To 0.01 M sodium phosphate buffer (92.5 μl) was added fixed concentration of a compound, for measuring purpose, (5 μl) and 5 μM β-amyloid 1-42 (2.5 μl). The resulting mixture was kept at 37° C. for 26 hours to aggregate. 5 μM tioflavin T (2000 μl) was added thereto, and then fluorescent strength was measured with fluorescent spectrometer.

ICR mice = assay: Acute toxicity test on animals; assay type: in vivo; settings: 50 mg/kg to 500 mg/kg intraperitoneal, single injection, observed for 10 days
Method: In order for a compound to be comprised in the pharmaceutical composition for treating Alzheimer's disease, it must be nontoxic. […] This test followed the protocol of Korea Food & Drug Administration. […] The compounds used for the test were diluted with wheat germ oil.

[2] = test system: patients with Alzheimer's disease; settings: cited from earlier work

## O=C(OCCCCN1CCC(OC(c2ccccc2)c2ccccc2)CC1)c1ccc([N+](=O)[O-])cc1 [Example 1, 4-[4-(benzhydryloxy)piperidino]butyl-4-nitrobenzoate]
[1]
  IC50: 7.2 µM
β-amyloid (1-42)
  IC50: 53.1 µM

## O=C(OCCCCN1CCC(OC(c2ccccc2)c2ccccc2)CC1)c1ccc(Cl)cc1 [Example 2, 4-[4-(benzhydryloxy)piperidino]butyl-4-chlorobenzoate]
[1]
  IC50: 0.3 µM
β-amyloid (1-42)
  IC50: 28.2 µM
ICR mice
  death rate: no death

## O=C(OCCCCN1CCC(OC(c2ccccc2)c2ccccc2)CC1)c1ccc(F)cc1 [Example 3, 4-[4-(benzhydryloxy)piperidino]butyl 4-fluorobenzoate]
[1]
  IC50: 0.84 µM
β-amyloid (1-42)
  IC50: 36.3 µM

## O=C(OCCCCN1CCC(OC(c2ccccc2)c2ccccc2)CC1)c1ccccc1 [Example 4, 4-[4-(benzhydryloxy)piperidino]butyl benzoate]
[1]
  IC50: 1.3 µM
β-amyloid (1-42)
  IC50: 40.3 µM

## CC(C)(C)c1ccc(C(=O)OCCCCN2CCC(OC(c3ccccc3)c3ccccc3)CC2)cc1 [Example 6, 4-[4-(benzhydryloxy)piperidino]butyl 4-(tert-butyl)benzoate]
ICR mice
  death rate: no death

## O=C(OCCCCN1CCC(OC(c2ccccc2)c2ccccc2)CC1)c1cccc(F)c1 [Example 8, 4-[4-(benzhydryloxy)piperidino]butyl 3-fluorobenzoate]
[1]
  IC50: 70.7 µM
β-amyloid (1-42)
  IC50: 33.7 µM

## O=C(Nc1ccc(F)cc1)OCCCCN1CCC(OC(c2ccccc2)c2ccccc2)CC1 [Example 10, 4-[4-(benzhydryloxy)piperidino]butyl N-(4-fluorophenyl)carbamate]
[1]
  IC50: 2.45 µM
β-amyloid (1-42)
  IC50: 114 µM

## O=C(OCCCCN1CCC(OC(c2ccccc2)c2ccccc2)CC1)c1cccnc1 [Example 11, 4-[4-(benzhydryloxy)piperidino]butyl nitcotinate]
[1]
  IC50: > 150 µM
β-amyloid (1-42)
  IC50: 61.2 µM

## O=C(OCCCCN1CCC(OCc2ccccc2)CC1)c1ccc([N+](=O)[O-])cc1 [Example 12, 4-[4-(benzyloxy)piperidino]butyl 4-nitrobenzoate]
[1]
  IC50: > 100 µM

## O=C(OCCCCN1CCC(OCc2ccccc2)CC1)c1ccc(Cl)cc1 [Example 13, 4-[4-(benzyloxy)piperidino]butyl 4-chlorobenzoate]
[1]
  IC50: > 100 µM

## O=C(OCCCCN1CCC(OCc2ccccc2)CC1)c1ccc(F)cc1 [Example 14, 4-[4-(benzyloxy)piperidino]butyl 4-fluorobenzoate]
[1]
  IC50: > 100 µM

## O=C(OCCCCN1CCC(OCc2ccccc2)CC1)c1ccccc1 [Example 15, 4-[4-(benzyloxy)piperidino]butyl benzoate]
[1]
  IC50: > 100 µM

## CC(C)c1ccc(C(=O)OCCCCN2CCC(OCc3ccccc3)CC2)cc1 [Example 16, 4-[4-(benzyloxy)piperidino]butyl 4-isopropylbenzoate]
[1]
  IC50: 14.8 µM

## CC(C)(C)c1ccc(C(=O)OCCCCN2CCC(OCc3ccccc3)CC2)cc1 [Example 17, 4-[4-(benzyloxy)piperidino]butyl 4-(tert-butyl)benzoate]
[1]
  IC50: 12.2 µM

## O=C(OCCCCN1CCC(OCc2ccccc2)CC1)c1cccc(Cl)c1 [Example 18, 4-[4-(benzyloxy)piperidino]butyl 3-chlorobenzoate]
[1]
  IC50: > 100 µM

## O=C(OCCCCN1CCC(OCc2ccccc2)CC1)c1cccc(F)c1 [Example 19, 4-[4-(benzyloxy)piperidino]butyl 3-fluorobenzoate]
[1]
  IC50: > 100 µM

## Nc1c2c(nc3ccccc13)CCCC2 [Tarcrine]
[2]
  share of patients with Alzheimer's disease in whom efficacious: about 25%
